In US10597388B2, “Pyridazinone herbicides” (FMC CORPORATION, priority 2014, dated 2020):

Tests used:
Assay in all cases: Test D controlled growth environment herbicide test, pre- and postemergence
Format in all cases: in vivo
[1] = test system: ryegrass, Italian (Italian ryegrass, Lolium multiflorum)
Excerpt: (§1) Seeds of plant species selected from bluegrass (annual bluegrass, Poa annua), blackgrass (Alopecurus myosuroides), Canada thistle (Cirsium arvense), canarygrass (Phalaris minor), chickweed (common chickweed, Stellaria media), geranium, cutleaf (cutleaf geranium, Geranium dissectum), galium (catchweed bedstraw, Galium aparine), bromegrass, downy (downy bromegrass, Bromus tectorum), field poppy (Papaver rhoeas), field violet (Viola arvensis), foxtail, green (green foxtail, Setaria viridis), deadnettle (henbit deadnettle, Lamium amplexicaule), ryegrass, Italian (Italian ryegrass, Lolium multiflorum), kochia (Kochia scoparia), lambsquarters (Chenopodium album), oilseed rape (Brassica napus), pigweed (Amaranthus retroflexus), chamomile (scentless chamomile, Matricaria inodora), Russian thistle (Salsola kali), speedwell (bird's-eye speedwell, Veronica persica), barley, spring (spring barley, Hordeum vulgare), wheat, spring (spring wheat, Triticum aestivum), buckwheat, wild (wild buckwheat, Polygonum convolvulus), mustard, wild (wild mustard, Sinapis arvensis), oat, wild (wild oat, Avena fatua), radish, wild (wild radish, Raphanus raphanistrum), windgrass (Apera spica-venti), barley, winter (winter barley, Hordeum vulgare), and wheat, winter (winter wheat, Triticum aestivum) were planted into a silt loam soil and treated preemergence with test chemicals formulated in a non-phytotoxic solvent mixture which included a surfactant.
(§2) At the same time, these species were planted in pots containing Redi-Earth® planting medium (Scotts Company, 14111 Scottslawn Road, Marysville, Ohio 43041) comprising spaghnum peat moss, vermiculite, wetting agent and starter nutrients and treated with postemergence applications of the test chemicals formulated in the same manner. Plants ranged in height from 2 to 18 cm (1- to 4-leaf stage). Treated plants and controls were maintained in a controlled growth environment for 14 to 21 d after which time all species were compared to controls and visually evaluated. Plant response ratings, summarized in Table D, are based on a scale of 0 to 100 where 0 is no effect and 100 is complete control. A dash (-) response means no test result.

[2] = test system: foxtail, green (green foxtail, Setaria viridis)
Excerpt: as §1, §2

[3] = test system: wheat, spring (spring wheat, Triticum aestivum)
Excerpt: as §1, §2

[4] = test system: field poppy (Papaver rhoeas)
Excerpt: as §1, §2

[5] = test system: bromegrass, downy (downy bromegrass, Bromus tectorum)
Excerpt: as §1, §2

[6] = test system: wheat, winter (winter wheat, Triticum aestivum)
Excerpt: as §1, §2

[7] = test system: chamomile (scentless chamomile, Matricaria inodora)
Excerpt: as §1, §2

[8] = test system: lambsquarters (Chenopodium album)
Excerpt: as §1, §2

[9] = test system: barley, winter (winter barley, Hordeum vulgare)
Excerpt: as §1, §2

[10] = test system: chickweed (common chickweed, Stellaria media)
Excerpt: as §1, §2

[11] = test system: barley, spring (spring barley, Hordeum vulgare)
Excerpt: as §1, §2

[12] = test system: blackgrass (Alopecurus myosuroides)
Excerpt: as §1, §2

[13] = test system: deadnettle (henbit deadnettle, Lamium amplexicaule)
Excerpt: as §1, §2

[14] = Postemergence, 31 g ai/ha, scale 0 to 100 (0 no effect, 100 complete control)
[15] = Postemergence, 125 g ai/ha, visual rating on scale 0 (no effect) to 100 (complete control), 14 to 21 d
[16] = Postemergence, 250 g ai/ha, scale 0 to 100 (0 no effect, 100 complete control)
[17] = Preemergence, 62 g ai/ha, scale 0 to 100 (0 no effect, 100 complete control)
[18] = Preemergence, 125 g ai/ha, scale 0 to 100 (0 no effect, 100 complete control)
[19] = Preemergence, 250 g ai/ha, scale 0 to 100 (0 no effect, 100 complete control)
[20] = postemergence, 62 g ai/ha, scale 0 to 100, 0 no effect, 100 complete control

Q: `COc1nn(C)c(=O)c(-c2c(C)ccc3ccccc23)c1OC(=O)OC(C)C` [Compound 36] was tested. Which “Ryegrass, Italian plant response rating” value [1, 14] did it give?
A: 75

Q: What about the “Plant response rating, Ryegrass, Italian” value [1, 15] of the same compound?
A: 90

Q: What about the “Plant response rating, Ryegrass, Italian” value [1, 16] of the same compound?
A: 90

Q: And the “Plant response rating (scale of 0 to 100), Ryegrass, Italian” value ([1]; Preemergence, 31 g ai/ha)?
A: 20

Q: What about the “Plant response rating, Ryegrass, Italian” value [1, 17] of the same compound?
A: 65

Q: What about the “Plant response rating, Ryegrass, Italian” value [1, 18] of the same compound?
A: 70

Q: What about the “Plant response rating, Ryegrass, Italian” value [1, 19] of the same compound?
A: 70

Q: What about the “Plant response rating, Ryegrass, Italian” value [1, 20] of the same compound?
A: 80

Q: And the “Foxtail, Green plant response rating” value [2, 14]?
A: 35

Q: And the “Plant response rating, Foxtail, Green” value [2, 15]?
A: 80

Q: And the “Plant response rating, Foxtail, Green” value [2, 16]?
A: 90

Q: And the “Plant response rating (scale of 0 to 100), Foxtail, Green” value ([2]; Preemergence, 31 g ai/ha)?
A: 45

Q: What about the “Plant response rating, Foxtail, Green” value [2, 17] of the same compound?
A: 25

Q: And the “Plant response rating, Foxtail, Green” value [2, 18]?
A: 70

Q: And the “Plant response rating, Foxtail, Green” value [2, 19]?
A: 75

Q: And the “Plant response rating, Foxtail, Green” value [2, 20]?
A: 45

Q: And the “Wheat, Spring plant response rating” value [3, 14]?
A: 0

Q: And the “Plant response rating, Wheat, Spring” value [3, 15]?
A: 0

Q: What about the “Plant response rating, Wheat, Spring” value [3, 16] of the same compound?
A: 10

Q: What about the “Plant response rating (scale of 0 to 100), Wheat, Spring” value ([3]; Preemergence, 31 g ai/ha) of the same compound?
A: 0

Q: And the “Plant response rating, Wheat, Spring” value [3, 17]?
A: 0

Q: What about the “Plant response rating, Wheat, Spring” value [3, 18] of the same compound?
A: 0

Q: What about the “Plant response rating, Wheat, Spring” value [3, 19] of the same compound?
A: 30

Q: What about the “Plant response rating, Wheat, Spring” value [3, 20] of the same compound?
A: 0

Q: What about the “Field Poppy plant response rating” value [4, 14] of the same compound?
A: 60

Q: And the “Plant response rating, Field Poppy” value [4, 15]?
A: 90

Q: And the “Plant response rating, Field Poppy” value [4, 16]?
A: 100

Q: What about the “Plant response rating, Field Poppy” value [4, 17] of the same compound?
A: 50

Q: What about the “Plant response rating, Field Poppy” value [4, 18] of the same compound?
A: 70

Q: And the “Plant response rating, Field Poppy” value [4, 19]?
A: 100

Q: And the “Plant response rating, Field Poppy” value [4, 20]?
A: 70

Q: And the “Bromegrass, Downy plant response rating” value [5, 14]?
A: 10

Q: And the “Plant response rating, Bromegrass, Downy” value [5, 15]?
A: 55

Q: What about the “Plant response rating, Bromegrass, Downy” value [5, 16] of the same compound?
A: 65

Q: And the “Plant response rating (scale of 0 to 100), Bromegrass, Downy” value ([5]; Preemergence, 31 g ai/ha)?
A: 0

Q: And the “Plant response rating, Bromegrass, Downy” value [5, 17]?
A: 0

Q: What about the “Plant response rating, Bromegrass, Downy” value [5, 18] of the same compound?
A: 10

Q: What about the “Plant response rating, Bromegrass, Downy” value [5, 19] of the same compound?
A: 35

Q: What about the “Plant response rating, Bromegrass, Downy” value [5, 20] of the same compound?
A: 20

Q: And the “Wheat, Winter plant response rating” value [6, 14]?
A: 0

Q: What about the “Plant response rating, Wheat, Winter” value [6, 15] of the same compound?
A: 5

Q: And the “Plant response rating, Wheat, Winter” value [6, 16]?
A: 15

Q: What about the “Plant response rating (scale of 0 to 100), Wheat, Winter” value ([6]; Preemergence, 31 g ai/ha) of the same compound?
A: 0

Q: What about the “Plant response rating, Wheat, Winter” value [6, 17] of the same compound?
A: 0

Q: And the “Plant response rating, Wheat, Winter” value [6, 18]?
A: 0

Q: What about the “Plant response rating, Wheat, Winter” value [6, 19] of the same compound?
A: 0

Q: What about the “Plant response rating, Wheat, Winter” value [6, 20] of the same compound?
A: 0

Q: What about the “Chamomile plant response rating” value [7, 14] of the same compound?
A: 95

Q: And the “Plant response rating, Chamomile” value [7, 15]?
A: 100

Q: And the “Plant response rating, Chamomile” value [7, 16]?
A: 100

Q: And the “Plant response rating, Chamomile” value [7, 20]?
A: 95

Q: What about the “Lambsquarters plant response rating” value [8, 14] of the same compound?
A: 95

Q: And the “Plant response rating, Lambsquarters” value [8, 15]?
A: 100

Q: What about the “Plant response rating, Lambsquarters” value [8, 16] of the same compound?
A: 100

Q: And the “Plant response rating (scale of 0 to 100), Lambsquarters” value ([8]; Preemergence, 31 g ai/ha)?
A: 75

Q: And the “Plant response rating, Lambsquarters” value [8, 17]?
A: 95

Q: What about the “Plant response rating, Lambsquarters” value [8, 18] of the same compound?
A: 75

Q: And the “Plant response rating, Lambsquarters” value [8, 19]?
A: 95

Q: And the “Plant response rating, Lambsquarters” value [8, 20]?
A: 95

Q: What about the “Plant response rating, Barley, Winter” value [9, 14] of the same compound?
A: 0

Q: What about the “Plant response rating, Barley, Winter” value [9, 15] of the same compound?
A: 5

Q: What about the “Plant response rating, Barley, Winter” value [9, 16] of the same compound?
A: 10

Q: And the “Plant response rating (scale of 0 to 100), Barley, Winter” value ([9]; Preemergence, 31 g ai/ha)?
A: 0

Q: And the “Plant response rating, Barley, Winter” value [9, 17]?
A: 0

Q: And the “Plant response rating, Barley, Winter” value [9, 18]?
A: 0

Q: And the “Barley, Winter plant response rating” value [9, 19]?
A: 0

Q: And the “Plant response rating, Barley, Winter” value [9, 20]?
A: 0

Q: What about the “Chickweed plant response rating” value [10, 14] of the same compound?
A: 100

Q: What about the “Plant response rating, Chickweed” value [10, 15] of the same compound?
A: 100

Q: What about the “Plant response rating, Chickweed” value [10, 16] of the same compound?
A: 100

Q: And the “Plant response rating (scale of 0 to 100), Chickweed” value ([10]; Preemergence, 31 g ai/ha)?
A: 95

Q: What about the “Plant response rating, Chickweed” value [10, 17] of the same compound?
A: 95

Q: And the “Plant response rating, Chickweed” value [10, 18]?
A: 100

Q: And the “Plant response rating, Chickweed” value [10, 19]?
A: 100

Q: What about the “Plant response rating, Chickweed” value [10, 20] of the same compound?
A: 100

Q: And the “Plant response rating, Barley, Spring” value [11, 14]?
A: 0

Q: What about the “Plant response rating, Barley, Spring” value [11, 15] of the same compound?
A: 0

Q: What about the “Plant response rating, Barley, Spring” value [11, 16] of the same compound?
A: 10

Q: What about the “Plant response rating (scale of 0 to 100), Barley, Spring” value ([11]; Preemergence, 31 g ai/ha) of the same compound?
A: 0

Q: And the “Plant response rating, Barley, Spring” value [11, 17]?
A: 0

Q: What about the “Plant response rating, Barley, Spring” value [11, 18] of the same compound?
A: 0

Q: What about the “Barley, Spring plant response rating” value [11, 19] of the same compound?
A: 0

Q: And the “Plant response rating, Barley, Spring” value [11, 20]?
A: 0

Q: And the “Blackgrass plant response rating” value [12, 14]?
A: 25

Q: What about the “Plant response rating, Blackgrass” value [12, 15] of the same compound?
A: 45

Q: And the “Plant response rating, Blackgrass” value [12, 16]?
A: 70

Q: And the “Plant response rating (scale of 0 to 100), Blackgrass” value ([12]; Preemergence, 31 g ai/ha)?
A: 15

Q: What about the “Plant response rating, Blackgrass” value [12, 17] of the same compound?
A: 30

Q: And the “Plant response rating, Blackgrass” value [12, 18]?
A: 35

Q: And the “Blackgrass plant response rating” value [12, 19]?
A: 50

Q: And the “Plant response rating, Blackgrass” value [12, 20]?
A: 35

Q: What about the “Deadnettle plant response rating” value [13, 14] of the same compound?
A: 80

Q: And the “Plant response rating, Deadnettle” value [13, 15]?
A: 100

Q: And the “Plant response rating, Deadnettle” value [13, 16]?
A: 100

Q: What about the “Plant response rating (scale of 0 to 100), Deadnettle” value ([13]; Preemergence, 31 g ai/ha) of the same compound?
A: 0

Q: And the “Plant response rating, Deadnettle” value [13, 17]?
A: 0

Q: And the “Plant response rating, Deadnettle” value [13, 18]?
A: 50

Q: And the “Plant response rating, Deadnettle” value [13, 19]?
A: 85

Q: What about the “Plant response rating, Deadnettle” value [13, 20] of the same compound?
A: 100
